Reference: patent US12410237B2, “Methods for purifying proteins having a tubulin carboxypeptidase activity and peptidic based inhibitors thereof” (CENTRE NATIONAL DE LA RECHERCHE SCIENTIFIQUE, priority 2017, dated 2025)
“Also recorded” adds a separate entry of the source.

Legend:
[1] = system: native TCPase activity in brain MAPs; assay: detyrosination assay with 3H-tyrosine labelled microtubules and isolated brain MAPs; assay type: biochemical, pig; settings: for inhibition of native TCPase activity in brain MAPs (in words): protease inhibitor treatment of brain MAPs, FIG. 5; for inhibition of TCP activity in the MAPs fraction by peptides (in words): brain-derived MAPs, FIG. 11A
Procedure: An assay involving radioactively labelled tyrosine (^3H—Y) was used to quantitatively determine the TCPase activity. Brain tubulin was isolated and purified and radioactively labelled with *Y by recombinant TTL. To do so, recombinant bacterially expressed purified TTL (>90% purity) was put in contact with micrograms of pig brain purified tubulin. The reaction sample was incubated for one hour at 37° C. in presence of radioactively labelled ^3H—Y and ATP. Following incorporation of ^3H—Y to tubulin, a polymerization cycle was performed by adding GTP and incubating for 30 min at 37° C. Next the samples are centrifuged and the obtained pellet was washed twice with PEM buffer. The resulting radioactively labelled MTs were store at −80° C. until further testing. […] After obtaining both purified recombinant TCPase candidate and radioactively labelled MTs, the proteins were put into contact and various amounts of TCPase were presented to MTs. Removal of the radioactive tyrosine by the candidate detyrosinase was measured by quantification of radioactivity in both the soluble and insoluble fraction of the reaction using a liquid scintillator counter.
To further gain insights in the potential protease that could embody the TCPase activity, the isolated MAPs from crude brain extracts were exposed to a selection of specific Cysteine, Aspartic, Metallo and Serine proteinase inhibitors were tested on the extract.
Recombinant bacterially expressed purified TTL (>90% purity) was put in contact with micrograms of pig brain purified tubulin. The reaction sample was incubated for one hour at 37° C. in presence of radioactively labeled ^3H—Y and ATP. Following incorporation of ^3H—Y to tubulin, a polymerization cycle was performed by adding GTP and incubating for 30 min at 37° C. Next, the samples were centrifuged and the obtained pellet was washed twice with PEM buffer. The resulting radioactively labeled MTs were store at −80° C. until further testing. The isolated MAPs from crude brain extracts (as obtained in example 1) were contacted to the radioactively labeled MTs in absence or presence of different peptidic inhibitors or an increasing concentration of peptidic inhibitor. Release of radioactive tyrosine by native TCPase containing brain MAPs was measured by quantification of radioactivity in both the soluble and insoluble fraction of the reaction using a liquid scintillator counter.

C2C12 cells = assay: C2C12 myogenic differentiation, immunoblot of tubulin detyrosination and acetylation; assay type: cell-based, mouse; settings: C2C12 myogenic differentiation time-course, FIG. 12
Procedure: C2C12 cells is an immortal cell line of mouse skeletal myoblasts originally derived from satellite cells from the thigh muscle cells. C2C12 cells were routinely grown at 37° C. in a CO2 incubator. Myogenic differentiation is initiated upon reaching confluence by switching the cells to medium containing 2% horse serum. Cells were collected at start of the myogenic differentiation and every two days over a period of 6 days for molecular analysis.
To further study the use of a TCPase inhibitor, C2C12 cells were treated with or without EEY peptide (FIG. 12). The protein expression of Myosin was monitored by western blotting as control for muscle differentiation. Vinculin acts as loading control. Acetylation and detyrosination of the microtubules was assessed. Whereas acetylation increases during differentiation (Ac-Tubulin) no difference in the status could be observed in the treated cells.

Row | inhibition of TCP activity in the MAPs fraction by peptides (in words) [1] | Molecule | inhibition of native TCPase activity in brain MAPs (in words) [1] | acetylation of the microtubules (Ac-Tubulin) (C2C12 cells) | tubulin detyrosination levels (Δ1-tubulin) (C2C12 cells)
1 | – | CC(C)C[C@H](NC(=O)[C@H]1O[C@@H]1C(=O)O)C(=O)NCCCCN=C(N)N [E64, reference compound] | complete inhibition | – | –
2 | – | NC(=O)CI [Iodoacetamide, reference compound] | complete inhibition | – | –
3 | partially blocked | EDY: three amino acid peptide EDY inspired by the C-terminal sequence of tubulin | – | – | –
4 | almost fully inhibited | EEY: tripeptide EEY inspired by the C-terminal sequence of alpha-tubulin, TCP inhibitor | – | no difference | clearly inhibited detyrosination; also recorded: decrease
